3 compounds from patent publication US8227510B2, “Combine use of pterostilbene and quercetin for the production of cancer treatment medicaments” (Universitat de Valencia, priority 2004, dated 2012) can be followed below.

The subject of data set [1] is B16M-F10 cells / HSE. Description: HSE-induced cytotoxicity on adhering B16M-F10 cells in vitro. Format: cell-based, mice. Particulars: for Tumor cells Cytotoxicity (% of adhering): t-RESV 12 μM, t-PTER 40 μM, QUER 20 μM, after 6 hours of incubation, none 15 ± 2. From the text:
C57BL/6J mice were used (male, 10 to 12 weeks old) from IFFA Credo (L'Arbreole, France). The hepatic sinusoidal endothelium (HSE) was separated and identified as described previously (20). The sinusoidal cells were separated in a gradient of 17.5% metrizamide (w/v). The HSE cultures were established and maintained in pyrogen-free DMEM supplemented as described previously for the B16M-F10 cells. Differential adhesion of the endothelial cells to the collagen matrix and washing permitted complete removal of other types of sinusoidal cells (Kupffer's cells, astrocytes, lymphocytes) from the culture flasks.
The B16M-F10 cells were labeled with 2′,7′-bis-(2-carboxyethyl)-5-(and -6)-carboxyfluorescein acetoxymethyl ester (BCECF-AM; Moleculer Probes, Eugene, Oreg., USA) (10^6 cells were incubated for 20 minutes at 37° C. in 1 ml of DMEM buffered with HEPES that contained 50 μg of BCECF-AM and 5 μl of DMSO). After washing, the cells that contained BCECF-AM were resuspended in DMEM buffered with HEPES without phenol red at a concentration of 2.5×10^6 cells/ml and were added (0.2 ml/well) to the endothelial cell culture (seeded 24 hours previously), as well as to wells of plastic and controls previously treated with collagen. The plates were then incubated at 37° C. and, 20 minutes later, the wells were washed three times with fresh medium, and then their fluorescence was read using a Fluoroskan Ascent FL (Labsystems, Manchester, UK). The number of adhering tumor cells was quantified with arbitrary fluorescence units based on the percentage relative to the initial number of B16M-F10 cells added to the HSE culture (20). The damage caused to the B16M-F10 cells during their adhesion in vitro to the HSE was evaluated as described previously (21) using tumor cells labeled with calcein-AM (Molecular Probes, Eugene, Oreg., USA). The integrity of the B16M-F10 cells cultivated on their own was evaluated by exclusion of trypan blue and measuring the lactate dehydrogenase released to the extracellular medium (22). The other reagents used in the tumoral cytotoxicity experiments were from Sigma.
Recombinant murine TNF- (2×10^7 U/mg of protein) and recombinant murine interferon-(IFN-; 10^5 U/mg of protein) were obtained from Sigma. […]
HSE cells, previously cultured for 24 hours [±polyphenol(s), added 12 hours from seeding and removed by washing 60 minutes later], were cocultured with B16M-F10 cells previously cultured for 72 hours [±polyphenol(s), as in FIG. 2]. […] In the tests of endothelium-induced cytotoxicity on the B16M-F10 cells, the tumor damage (expressed as the percentage of tumor cells that lost viability during the incubation period of 4-6 hours, see the methodology) was determined after 6 hours of incubation. […]

The test system of data set [2] is B16M-F10 cells / HSE. Description: In-vitro invasion of the monolayer of hepatic endothelial cells by B16M-F10 cells. Format: cell-based, mice. The following applies: t-RESV 12 μM, t-PTER 40 μM, QUER 20 μM; 5 days culture; none 157 ± 17. The method, then:
The test of invasion of the endothelial cell monolayer by B16M-F10 cells was carried out in accordance with the method of Ohigashi et al. (23) with some modifications. The HSE cells were seeded on culture plates with grids coated with gelatin (1%). When the cells attained confluence, the culture medium was replaced with freshly prepared medium. After 2 hours of incubation, the cultures were washed with DMEM and then the B16M-F10 cells were seeded on the HSE cells, maintaining the culture for 5 days. The invasion capacity of the B16M-F10 cells was measured by counting the number of colonies per 1 cm^2 formed under the HSE monolayer using a phase-contrast microscope.
HSE cells, previously cultured for 24 hours [±polyphenol(s), added 12 hours from seeding and removed by washing 60 minutes later], were cocultured with B16M-F10 cells previously cultured for 72 hours [±polyphenol(s), as in FIG. 2]. Cytokines [100 units of TNF-/ml and 50 units of IFN-/ml, see (20)] or the vehicle (physiological saline) were added to the culture media 12 hours before starting the cocultures. The proportion of adhesion of the tumor cells to the HSE was ˜1:1 in the cultures treated with cytokines in the absence of polyphenols (this value was assigned an adhesion level of 100%). In the experiments of adhesion between B16M-F10 cells and endothelial cells, 20 minutes after adding the B16M-F10 to the HSE, the plates were washed in the manner described in the methodology. In the tests of endothelium-induced cytotoxicity on the B16M-F10 cells, the tumor damage (expressed as the percentage of tumor cells that lost viability during the incubation period of 4-6 hours, see the methodology) was determined after 6 hours of incubation. During the 6-hour incubation period, the percentage viability of the HSE cells was 99-100% in all cases. All of the tests were carried out in the absence or in the presence of t-RESV (12 μM), t-PTER (40 μM), and/or QUER (20 μM). […]

The structures appear in SMILES notation. Marks after values point to notes of the source that are not given here.

`COc1cc(/C=C/c2ccc(O)cc2)cc(OC)c1` [PTER, pterostilbene]: the “Tumor cells Cytotoxicity (% of adhering)” value with B16M-F10 cells / HSE [1] was 19 ± 3* % of adhering. Also, in the data set with B16M-F10 cells / HSE [2], the “Number of colonies penetrated per cm^2” value is reported as 89 ± 9** per cm^2.

Regarding `O=c1c(O)c(-c2ccc(O)c(O)c2)oc2cc(O)cc(O)c12` [QUER, quercetin], the “increase of the death of B16M-F10 cells induced by the HSE” value in the data set on B16M-F10 cells / HSE [1] (brief exposure (60 minutes)) is around 48%. The “Tumor cells Cytotoxicity (% of adhering)” value in the data set on B16M-F10 cells / HSE [1] is recorded as 52 ± 6** % of adhering. Further, the “Number of colonies penetrated per cm^2” value in the data set with B16M-F10 cells / HSE [2] is on record as 106 ± 15** per cm^2.

As to `Oc1ccc(C=Cc2cc(O)cc(O)c2)cc1` [RESV, resveratrol, reference compound], the “Tumor cells Cytotoxicity (% of adhering)” value with B16M-F10 cells / HSE [1] was 12 ± 3 % of adhering. Moreover, the “Number of colonies penetrated per cm^2” value with B16M-F10 cells / HSE [2] was 104 ± 12** per cm^2.
